This passage reports IC50 results from patent publication US20250100994A1, “CDK12/13 COVALENT INHIBITORS OR PHARMACEUTICAL COMPOSITION THEREOF, AND USES THEREOF” (The Regents of the University of Michigan, priority 2023, published 2025).

pIC50: −log10 of the molar value. Some results are limits rather than exact numbers.

The target in test [1] is CDK12 (Homo sapiens (Human), UniProt Q9NYV4). Description: LANCE Ultra kinase assay, CDK12. The conditions noted are these: 30 nM enzyme, 60 min pre-incubation, ULight-4E-BP1 150 nM; read-out: CDK12 IC50. In kind it is biochemical. As for the experimental part:
(§1) The inhibitory activities of the test compound on the kinases were evaluated by LANCE Ultra assay, which was used for detecting ATP-dependent phosphorylation of a ULight-4E-BP1 (Thr37/Thr46) substrate peptide (150 nM). In short, enzymatic reactions were performed in a reaction buffer (25 mM HEPES (pH 7.5), 10 mM MgCl2, 0.01% BSA, 0.01% Tween 20, and 1 mM DTT). The assay was performed in a 384-well plate (6 μL). A final concentration of an ATP substrate was […], and a final concentration of the ULight-4E-BP1 (Thr37/Thr46) substrate peptide was 150 nM. A final concentration of CDK9, CDK12, or CDK13 was 0.3, 30, or 30 nM, respectively. Pre-incubation of the compound and the enzyme was performed at room temperature for 60 min. The reaction was stopped by adding 10 mM EDTA and 0.15 nM Eu-labeled anti-phospho-eIF4E-binding protein 1 (Thr37/46) antibody in LANCE detection buffer after incubation at room temperature for 15, 60, or 90 min. Time-resolved fluorescence (excitation, 320 nm; emission donor, 615 nm; emission acceptor, 665 nm) was monitored using an EnVision spectrophotometer (PerkinElmer). Readings were computed as (acceptor count/donor count)×1000. IC50 values were derived by fitting a sigmoidal dose-response curve to a plot of assay readouts of inhibitor concentrations. All fittings were computed using program Prism 5.03 (GraphPad Software, San Diego, CA).
On the technique in general: Time-resolved FRET reads energy transfer from a long-lived donor to a nearby acceptor.

Test [2] concerns the target CDK13 (Homo sapiens (Human), UniProt Q14004). The experiment in a line: LANCE Ultra kinase assay, CDK13. The settings on record: 30 nM enzyme, 60 min pre-incubation, ULight-4E-BP1 150 nM; read-out: CDK13 IC50. In kind it is biochemical. As for the experimental part: as §1

CDK12, sequence (Q9NYV4 whole entry): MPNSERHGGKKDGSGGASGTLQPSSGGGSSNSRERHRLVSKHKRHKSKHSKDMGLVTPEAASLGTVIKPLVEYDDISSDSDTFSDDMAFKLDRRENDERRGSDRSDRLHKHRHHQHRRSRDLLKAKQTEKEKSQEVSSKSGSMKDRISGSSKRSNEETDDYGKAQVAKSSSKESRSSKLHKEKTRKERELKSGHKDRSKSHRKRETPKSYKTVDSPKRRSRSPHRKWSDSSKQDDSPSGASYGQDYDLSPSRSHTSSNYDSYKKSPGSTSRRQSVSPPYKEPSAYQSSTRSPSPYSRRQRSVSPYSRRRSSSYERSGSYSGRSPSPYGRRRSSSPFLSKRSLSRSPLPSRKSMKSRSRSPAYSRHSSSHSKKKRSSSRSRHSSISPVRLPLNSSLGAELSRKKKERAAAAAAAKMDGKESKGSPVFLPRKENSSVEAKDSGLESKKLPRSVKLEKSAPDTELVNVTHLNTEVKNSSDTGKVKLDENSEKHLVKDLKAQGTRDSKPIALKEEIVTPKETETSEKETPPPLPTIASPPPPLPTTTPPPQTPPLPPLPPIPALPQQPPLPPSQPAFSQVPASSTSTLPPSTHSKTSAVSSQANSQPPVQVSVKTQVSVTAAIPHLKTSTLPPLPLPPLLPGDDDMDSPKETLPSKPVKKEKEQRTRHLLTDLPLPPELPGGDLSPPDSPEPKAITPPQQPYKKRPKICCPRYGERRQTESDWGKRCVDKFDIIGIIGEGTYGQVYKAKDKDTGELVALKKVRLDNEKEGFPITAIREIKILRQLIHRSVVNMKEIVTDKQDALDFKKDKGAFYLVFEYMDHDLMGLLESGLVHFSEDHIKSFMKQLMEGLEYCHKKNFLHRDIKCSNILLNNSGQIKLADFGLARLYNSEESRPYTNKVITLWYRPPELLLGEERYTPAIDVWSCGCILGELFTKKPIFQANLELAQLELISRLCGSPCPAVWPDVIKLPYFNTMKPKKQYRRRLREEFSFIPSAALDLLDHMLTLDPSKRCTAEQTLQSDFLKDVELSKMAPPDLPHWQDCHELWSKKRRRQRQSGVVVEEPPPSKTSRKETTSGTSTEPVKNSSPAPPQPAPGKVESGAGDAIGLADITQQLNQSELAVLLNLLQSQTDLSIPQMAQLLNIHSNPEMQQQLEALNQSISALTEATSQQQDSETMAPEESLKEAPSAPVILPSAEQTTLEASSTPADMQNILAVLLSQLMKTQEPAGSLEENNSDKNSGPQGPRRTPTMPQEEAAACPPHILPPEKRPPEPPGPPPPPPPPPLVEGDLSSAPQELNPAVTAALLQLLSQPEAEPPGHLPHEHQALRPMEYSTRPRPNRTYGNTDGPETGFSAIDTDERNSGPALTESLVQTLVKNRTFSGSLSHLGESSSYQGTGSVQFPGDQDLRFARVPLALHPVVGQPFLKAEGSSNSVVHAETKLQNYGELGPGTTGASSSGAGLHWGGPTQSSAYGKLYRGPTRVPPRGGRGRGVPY
CDK12, sequence (O75909 whole entry partner): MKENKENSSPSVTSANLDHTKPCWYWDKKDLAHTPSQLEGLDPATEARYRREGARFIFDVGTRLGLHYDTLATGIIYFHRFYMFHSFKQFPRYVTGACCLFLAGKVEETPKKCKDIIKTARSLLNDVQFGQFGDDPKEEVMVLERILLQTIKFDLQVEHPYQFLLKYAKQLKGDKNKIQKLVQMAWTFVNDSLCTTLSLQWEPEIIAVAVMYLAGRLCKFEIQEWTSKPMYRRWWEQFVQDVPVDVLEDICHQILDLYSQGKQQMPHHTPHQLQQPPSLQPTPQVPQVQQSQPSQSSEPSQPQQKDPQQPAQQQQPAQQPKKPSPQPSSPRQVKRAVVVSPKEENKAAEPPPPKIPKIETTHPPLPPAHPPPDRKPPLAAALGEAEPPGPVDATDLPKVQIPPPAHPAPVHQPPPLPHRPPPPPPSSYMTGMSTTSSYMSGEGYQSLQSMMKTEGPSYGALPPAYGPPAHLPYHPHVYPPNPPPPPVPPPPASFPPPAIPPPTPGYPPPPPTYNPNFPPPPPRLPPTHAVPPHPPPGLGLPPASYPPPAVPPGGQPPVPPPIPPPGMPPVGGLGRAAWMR
CDK13, sequence (Q14004 whole entry, looked up): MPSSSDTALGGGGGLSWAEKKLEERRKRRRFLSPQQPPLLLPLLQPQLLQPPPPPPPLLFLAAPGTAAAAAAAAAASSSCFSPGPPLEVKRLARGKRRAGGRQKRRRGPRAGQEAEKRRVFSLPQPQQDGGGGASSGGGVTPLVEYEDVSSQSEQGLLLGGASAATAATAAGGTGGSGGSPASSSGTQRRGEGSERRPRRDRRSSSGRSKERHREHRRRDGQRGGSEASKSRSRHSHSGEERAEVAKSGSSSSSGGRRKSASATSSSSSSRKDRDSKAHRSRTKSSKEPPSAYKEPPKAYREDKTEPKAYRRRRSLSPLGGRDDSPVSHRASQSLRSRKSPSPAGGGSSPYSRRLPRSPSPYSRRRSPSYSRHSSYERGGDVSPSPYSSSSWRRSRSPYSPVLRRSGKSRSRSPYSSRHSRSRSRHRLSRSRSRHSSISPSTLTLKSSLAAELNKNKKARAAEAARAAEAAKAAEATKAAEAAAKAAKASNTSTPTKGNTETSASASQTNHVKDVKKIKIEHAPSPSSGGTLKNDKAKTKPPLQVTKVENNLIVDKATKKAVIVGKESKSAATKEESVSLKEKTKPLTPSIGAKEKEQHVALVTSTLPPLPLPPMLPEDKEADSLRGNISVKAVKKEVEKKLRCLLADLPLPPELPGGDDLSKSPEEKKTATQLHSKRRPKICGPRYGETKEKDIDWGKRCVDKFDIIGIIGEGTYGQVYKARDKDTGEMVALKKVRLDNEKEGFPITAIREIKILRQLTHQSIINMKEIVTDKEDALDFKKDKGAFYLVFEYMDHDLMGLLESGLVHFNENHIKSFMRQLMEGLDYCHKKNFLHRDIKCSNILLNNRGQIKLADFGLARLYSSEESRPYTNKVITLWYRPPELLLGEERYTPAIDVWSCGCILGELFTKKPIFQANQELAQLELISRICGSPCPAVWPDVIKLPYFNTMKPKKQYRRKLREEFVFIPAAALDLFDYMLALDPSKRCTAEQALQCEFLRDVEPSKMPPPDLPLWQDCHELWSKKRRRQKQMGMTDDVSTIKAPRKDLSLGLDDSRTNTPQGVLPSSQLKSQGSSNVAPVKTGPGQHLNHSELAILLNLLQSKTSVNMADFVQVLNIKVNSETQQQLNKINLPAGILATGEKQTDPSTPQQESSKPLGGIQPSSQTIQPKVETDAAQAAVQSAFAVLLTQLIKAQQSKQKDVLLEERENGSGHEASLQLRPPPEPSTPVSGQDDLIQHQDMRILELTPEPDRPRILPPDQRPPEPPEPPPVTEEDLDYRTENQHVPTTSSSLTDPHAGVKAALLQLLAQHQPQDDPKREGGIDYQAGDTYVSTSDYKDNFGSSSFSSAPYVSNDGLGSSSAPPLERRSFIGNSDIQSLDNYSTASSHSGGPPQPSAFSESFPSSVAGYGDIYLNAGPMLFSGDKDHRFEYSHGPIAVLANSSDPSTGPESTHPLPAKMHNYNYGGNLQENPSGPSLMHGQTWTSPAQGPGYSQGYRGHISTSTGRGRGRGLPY
CDK13, sequence (O75909 whole entry partner, looked up): as the sequence (O75909 whole entry partner) above

Regarding `C=CC(=O)Nc1cc(N(C(=O)NCC2CC2)[C@H]2CC[C@H](Nc3ccc(C#N)cn3)CC2)ccc1N1CCN(C)[C@@H](C)C1` [YJZ1025, N-(5-(1-((1r,4S)-4-((5-cyanopyridin-2-yl)amino)cyclohexyl)-3-(cyclopropylmethyl)ureido)-2-((S)-3,4-dimethylpiperazin-1-yl)phenyl)acrylamide], the pIC50 in test [1] and in test [2] was 6.30 to 7.30 in each case.

In the case of `C=CC(=O)Nc1cc(N(C(=O)NCC2COC2)[C@H]2CC[C@H](Nc3ccc(C#N)cn3)CC2)ccc1N1CCN(C)[C@@H](C)C1` [YJZ1031, N-(5-(1-((1r,4S)-4-((5-cyanopyridin-2-yl)amino)cyclohexyl)-3-(oxetanyl-3-ylmethyl)ureido)-2-((S)-3,4-dimethylpiperazin-1-yl)phenyl)acrylamide], the pIC50 in test [1] and in test [2] was less than 6.30 each time.

In the case of `C=CC(=O)Nc1cc(N(C(=O)NCc2cnn(C)c2)[C@H]2CC[C@H](Nc3ccc(C#N)cn3)CC2)ccc1N1CCN(C)[C@@H](C)C1` [YJZ1033, N-(5-(1-((1r,4S)-4-((5-cyanopyridin-2-yl)amino)cyclohexyl)-3-((1-methyl-1H-pyrazol-4-yl)methyl)ureido)-2-((S)-3,4-dimethylpiperazin-1-yl)phenyl)acrylamide], the values for the pIC50 in test [1] and in test [2] were less than 6.30 and 6.30 to 7.30, respectively.

On to `C=CC(=O)Nc1cc(N(C(=O)NCc2ccccc2Cl)[C@H]2CC[C@H](Nc3ccc(C#N)cn3)CC2)ccc1N1CCN(C)[C@@H](C)C1` [YJZ1060, N-(5-(3-(2-chlorobenzyl)-1-((1r,4S)-4-((5-cyanopyridin-2-yl)amino)cyclohexyl)ureido)-2-((S)-3,4-dimethylpiperazin-1-yl)phenyl)acrylamide], for which the pIC50 in test [1] and in test [2] was more than 7.82 in each case.

As to `C=CC(=O)Nc1cc(N(C(=O)NCc2cccnc2)[C@H]2CC[C@H](Nc3ccc(C#N)cn3)CC2)ccc1N1CCN(C)[C@@H](C)C1` [YJZ1061, N-(5-(1-((1r,4S)-4-((5-cyanopyridin-2-yl)amino)cyclohexyl)-3-(pyridin-3-ylmethyl)ureido)-2-((S)-3,4-dimethylpiperazin-1-yl)phenyl)acrylamide], the pIC50 in test [1] and in test [2] was 6.30 to 7.30 in each case.

For the compound `C=CC(=O)Nc1cc(N(C(=O)NCc2cocn2)[C@H]2CC[C@H](Nc3ccc(C#N)cn3)CC2)ccc1N1CCN(C)[C@@H](C)C1` [YJZ1063, N-(5-(1-((1r,4S)-4-((5-cyanopyridin-2-yl)amino)cyclohexyl)-3-(oxazol-4-ylmethyl)ureido)-2-((S)-3,4-dimethylpiperazin-1-yl)phenyl)acrylamide], the negative logarithm of the IC50 (pIC50) in test [1] and in test [2] was 6.30 to 7.30 throughout.

Take `C=CC(=O)Nc1cc(N(C(=O)NCC(F)(F)F)[C@H]2CC[C@H](Nc3ccc(C#N)cn3)CC2)ccc1N1CCN(C)[C@@H](C)C1` [YJZ1065, N-(5-(1-((1r,4S)-4-((5-cyanopyridin-2-yl)amino)cyclohexyl)-3-(2,2,2-trifluoroethyl)ureido)-2-((S)-3,4-dimethylpiperazin-1-yl)phenyl)acrylamide]: the pIC50 in test [1] and in test [2] was 6.30 to 7.30 in each case.

For `C=CC(=O)Nc1cc(N(C(=O)NCc2ccccc2)[C@H]2CC[C@H](Nc3ccc(C(F)(F)F)cn3)CC2)ccc1N1CCN(C)[C@@H](C)C1` [YJZ1066, N-(5-(3-benzyl-1-((1r,4S)-4-((5-(trifluoromethyl)pyridin-2-yl)amino)cyclohexyl)ureido)-2-((S)-3,4-dimethylpiperazin-1-yl)phenyl)acrylamide], the pIC50 in test [1] is 7.30 to 7.82; in test [2] it was more than 7.82.

For `C=CC(=O)Nc1cc(N(C(=O)NCc2ccccc2)[C@H]2CC[C@H](Nc3ccc(Cl)cn3)CC2)ccc1N1CCN(C)[C@@H](C)C1` [YJZ1070, N-(5-(3-benzyl-1-((1r,4S)-4-((5-chloropyridin-2-yl)amino)cyclohexyl)ureido)-2-((S)-3,4-dimethylpiperazin-1-yl)phenyl)acrylamide], the pIC50 in test [1] and in test [2] was 7.30 to 7.82 in each case.

In the case of `C=C(F)C(=O)Nc1cc(N(C(=O)NCc2ccccc2)[C@H]2CC[C@H](Nc3ccc(C#N)cn3)CC2)ccc1N1CCN(C)[C@@H](C)C1` [YJZ1072, N-(5-(3-benzyl-1-((1r,4S)-4-((5-cyanopyridin-2-yl)amino)cyclohexyl)ureido)-2-((S)-3,4-dimethylpiperazin-1-yl)phenyl)-2-fluoroacrylamide], the pIC50 in test [1] is 6.30 to 7.30; in test [2], 7.30 to 7.82.

Regarding `C=CC(=O)Nc1cc(N(C(=O)NCc2ccccc2)[C@H]2CC[C@H](Nc3ccc(C#N)cn3)CC2)ccc1N1CCN(C)CC1` [YJZ5114, N-(5-(3-benzyl-1-((1r,4r)-4-((5-cyanopyridin-2-yl)amino)cyclohexyl)ureido)-2-(4-methylpiperazin-1-yl)phenyl)acrylamide], the pIC50 in test [1] and in test [2] was 6.30 to 7.30 in each case.

As for `C=CC(=O)Nc1cc(N(C(=O)NCc2ccccc2)[C@H]2CC[C@H](Nc3ccc(C#N)cn3)CC2)ccc1Br` [YJZ6048, N-(5-(3-benzyl-1-((1r,4r)-4-((5-cyanopyridin-2-yl)amino)cyclohexyl)ureido)-2-bromophenyl)acrylamide], the values for the negative logarithm of the IC50 (pIC50) in test [1] and in test [2] were 7.30 to 7.82 and more than 7.82, respectively.

As for `C=CC(=O)Nc1cc(N(C(=O)NCc2ccc(F)cc2)[C@H]2CC[C@H](Nc3ccc(C#N)cn3)CC2)ccc1N1CCN(C)[C@@H](C)C1` [YJZ9166, N-(5-(1-((1r,4S)-4-((5-cyanopyridin-2-yl)amino)cyclohexyl)-3-(4-fluorobenzyl)ureido)-2-((S)-3,4-dimethylpiperazin-1-yl)phenyl)acrylamide], the pIC50 in test [1] and in test [2] was 7.30 to 7.82 each time.

As for `C=CC(=O)Nc1cc(N(C(=O)N[C@@H](C)c2ccccc2)[C@H]2CC[C@H](Nc3ccc(C#N)cn3)CC2)ccc1N1CCN(C)[C@@H](C)C1` [YJZ9170, N-(5-(1-((1r,4S)-4-((5-cyanopyridin-2-yl)amino)cyclohexyl)-3-((S)-1-phenylethyl)ureido)-2-((S)-3,4-dimethylpiperazin-1-yl)phenyl)acrylamide], the negative-log IC50 (pIC50) in test [1] and in test [2] was 7.30 to 7.82 each time.

With `C=CC(=O)Nc1cc(N(C(=O)NCc2ccccc2)[C@H]2CC[C@H](Nc3ccc(C#N)cn3)CC2)cnc1N1CCN(C)[C@@H](C)C1` [YJZ9171, N-(5-(3-benzyl-1-((1r,4S)-4-((5-cyanopyridin-2-yl)amino)cyclohexyl)ureido)-2-((S)-3,4-dimethylpiperazin-1-yl)pyridin-3-yl)acrylamide], the pIC50 in test [1] is more than 7.82; in test [2], 7.30 to 7.82.

In the case of `C=CC(=O)Nc1cc(N(C(=O)NC2CC2)[C@H]2CC[C@H](Nc3ccc(C#N)cn3)CC2)ccc1N1CCN(C)[C@@H](C)C1` [YJZ9173, N-(5-(1-((1r,4S)-4-((5-cyanopyridin-2-yl)amino)cyclohexyl)-3-cyclopropylureido)-2-((S)-3,4-dimethylpiperazin-1-yl)phenyl)acrylamide], the pIC50 in test [1] and in test [2] was 6.30 to 7.30 in each case.

In the case of `C=CC(=O)Nc1cc(N(C(=O)N[C@H](C)c2ccccc2)[C@H]2CC[C@H](Nc3ccc(C#N)cn3)CC2)ccc1N1CCN(C)[C@@H](C)C1` [YJZ9176, N-(5-(1-((1r,4R)-4-((5-cyanopyridin-2-yl)amino)cyclohexyl)-3-((R)-1-phenylethyl)ureido)-2-((S)-3,4-dimethylpiperazin-1-yl)phenyl)acrylamide], the pIC50 is less than 6.30 in test [1] and 6.30 to 7.30 in test [2].

As to `C=CC(=O)Nc1cc(N(C(=O)NCc2cccc(F)c2)[C@H]2CC[C@H](Nc3ccc(C#N)cn3)CC2)ccc1N1CCN(C)[C@@H](C)C1` [YJZ9177, N-(5-(1-((1r,4S)-4-((5-cyanopyridin-2-yl)amino)cyclohexyl)-3-(3-fluorobenzyl)ureido)-2-((S)-3,4-dimethylpiperazin-1-yl)phenyl)acrylamide], the results for the pIC50 in test [1] and in test [2] were 7.30 to 7.82 and more than 7.82, respectively.

With `C=CC(=O)Nc1cc(N(C(=O)NCc2ccccc2F)[C@H]2CC[C@H](Nc3ccc(C#N)cn3)CC2)ccc1N1CCN(C)[C@@H](C)C1` [YJZ9179, N-(5-(1-((1r,4S)-4-((5-cyanopyridin-2-yl)amino)cyclohexyl)-3-(2-fluorobenzyl)ureido)-2-((S)-3,4-dimethylpiperazin-1-yl)phenyl)acrylamide], the pIC50 in test [1] is 7.30 to 7.82; in test [2], more than 7.82.

As a reminder, the pIC50 is −log10 of the IC50, conventionally taken in molar units.
